Like-named read-outs stand apart in the source and are kept apart here.
Key:
Test in all cases: HotSpot kinase profiling
Assay type in all cases: biochemical
ABL2/ARG = molecular target: T1, ABL2/ARG (Homo sapiens, UniProt P42684)
T1 construct: purchased Reaction Biology Corp
How it was run: (§1)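 Radiometric kinase assay with P81 filter capture; each kinase was added to fresh substrate plus cofactors in reaction buffer and incubated 2 h at room temperature. Unreacted phosphate was washed off with 0.1% phosphoric acid before detection; percent inhibition is relative to DMSO control, averaged over replicates.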

DRAK1/STK17A = molecular target: T2, DRAK1/STK17A (Homo sapiens, UniProt Q9UEE5)
T2 construct: purchased Reaction Biology Corp
T2 sequence (Q9UEE5 1-414): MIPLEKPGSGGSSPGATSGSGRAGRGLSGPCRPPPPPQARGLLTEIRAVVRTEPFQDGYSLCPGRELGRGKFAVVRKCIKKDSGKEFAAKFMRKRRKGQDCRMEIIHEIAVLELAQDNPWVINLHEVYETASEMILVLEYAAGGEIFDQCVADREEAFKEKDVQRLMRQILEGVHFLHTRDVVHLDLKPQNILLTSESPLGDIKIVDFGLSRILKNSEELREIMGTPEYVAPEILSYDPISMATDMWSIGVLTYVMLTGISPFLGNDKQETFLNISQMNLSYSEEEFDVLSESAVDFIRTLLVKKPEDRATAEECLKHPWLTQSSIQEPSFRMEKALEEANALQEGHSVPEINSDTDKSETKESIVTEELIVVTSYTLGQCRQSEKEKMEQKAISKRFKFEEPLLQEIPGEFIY
How it was run: as §1

EPHA5 = molecular target: T3, EPHA5 (Homo sapiens, UniProt P54756)
T3 construct: purchased Reaction Biology Corp
How it was run: as §1

FGFR1 = molecular target: T4, FGFR1 (Homo sapiens, UniProt P11362)
T4 construct: purchased Reaction Biology Corp
How it was run: as §1

DDR2 = molecular target: T5, DDR2 (Homo sapiens, UniProt Q16832)
T5 construct: purchased Reaction Biology Corp
T5 sequence (Q16832 22-855): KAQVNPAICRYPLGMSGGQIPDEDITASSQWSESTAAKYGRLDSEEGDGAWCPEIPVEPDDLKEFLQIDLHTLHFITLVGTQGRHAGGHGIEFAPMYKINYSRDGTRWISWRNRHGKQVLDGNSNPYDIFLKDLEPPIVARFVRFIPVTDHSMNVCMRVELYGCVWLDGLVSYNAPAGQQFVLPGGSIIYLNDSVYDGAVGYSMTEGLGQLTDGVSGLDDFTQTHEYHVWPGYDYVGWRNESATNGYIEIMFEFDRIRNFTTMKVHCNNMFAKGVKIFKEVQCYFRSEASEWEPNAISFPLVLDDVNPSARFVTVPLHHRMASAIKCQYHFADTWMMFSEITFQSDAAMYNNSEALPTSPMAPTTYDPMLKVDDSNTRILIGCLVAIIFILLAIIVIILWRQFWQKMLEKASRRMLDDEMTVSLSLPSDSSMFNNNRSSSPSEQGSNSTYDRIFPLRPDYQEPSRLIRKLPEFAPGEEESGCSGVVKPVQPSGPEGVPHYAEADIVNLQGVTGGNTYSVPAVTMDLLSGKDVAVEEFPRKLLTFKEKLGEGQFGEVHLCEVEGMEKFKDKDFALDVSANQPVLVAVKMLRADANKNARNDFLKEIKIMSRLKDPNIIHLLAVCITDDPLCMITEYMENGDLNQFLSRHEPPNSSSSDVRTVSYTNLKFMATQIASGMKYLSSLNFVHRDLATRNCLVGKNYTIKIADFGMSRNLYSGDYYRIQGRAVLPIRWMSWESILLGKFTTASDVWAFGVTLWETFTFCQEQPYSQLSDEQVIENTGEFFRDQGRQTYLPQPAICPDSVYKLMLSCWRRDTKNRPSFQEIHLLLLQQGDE
How it was run: as §1

SGK1 = molecular target: T6, SGK1 (Homo sapiens, UniProt O00141)
T6 construct: purchased Reaction Biology Corp
T6 sequence (O00141 1-431): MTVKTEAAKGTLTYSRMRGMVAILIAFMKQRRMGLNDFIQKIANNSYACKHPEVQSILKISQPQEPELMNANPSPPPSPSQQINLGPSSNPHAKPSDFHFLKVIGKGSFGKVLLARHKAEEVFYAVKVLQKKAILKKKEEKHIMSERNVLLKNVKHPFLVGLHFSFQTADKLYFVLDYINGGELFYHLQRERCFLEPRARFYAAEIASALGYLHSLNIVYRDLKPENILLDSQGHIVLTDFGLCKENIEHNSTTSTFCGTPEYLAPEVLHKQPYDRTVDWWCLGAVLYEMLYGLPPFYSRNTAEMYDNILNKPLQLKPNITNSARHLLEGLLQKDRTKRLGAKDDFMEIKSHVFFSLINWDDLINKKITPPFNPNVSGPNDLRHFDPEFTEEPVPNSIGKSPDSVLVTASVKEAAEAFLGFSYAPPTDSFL
How it was run: as §1

PBK/TOPK = molecular target: T7, PBK/TOPK (Homo sapiens, UniProt Q96KB5)
T7 construct: purchased Reaction Biology Corp
T7 sequence (Q96KB5 1-322): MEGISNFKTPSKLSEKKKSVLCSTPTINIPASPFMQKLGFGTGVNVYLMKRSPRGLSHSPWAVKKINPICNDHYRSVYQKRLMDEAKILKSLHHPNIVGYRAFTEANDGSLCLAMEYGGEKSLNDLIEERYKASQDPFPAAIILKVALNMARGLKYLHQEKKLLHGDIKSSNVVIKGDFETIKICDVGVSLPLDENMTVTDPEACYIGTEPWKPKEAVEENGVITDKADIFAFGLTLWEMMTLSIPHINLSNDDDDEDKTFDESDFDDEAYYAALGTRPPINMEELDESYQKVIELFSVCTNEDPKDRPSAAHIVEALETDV
How it was run: as §1

[1] = read-out: % Enzyme Activity (relative to DMSO controls) Run 1
[2] = read-out: % Enzyme Activity (relative to DMSO controls) Run 2

T4 sequence (P11362 22-822): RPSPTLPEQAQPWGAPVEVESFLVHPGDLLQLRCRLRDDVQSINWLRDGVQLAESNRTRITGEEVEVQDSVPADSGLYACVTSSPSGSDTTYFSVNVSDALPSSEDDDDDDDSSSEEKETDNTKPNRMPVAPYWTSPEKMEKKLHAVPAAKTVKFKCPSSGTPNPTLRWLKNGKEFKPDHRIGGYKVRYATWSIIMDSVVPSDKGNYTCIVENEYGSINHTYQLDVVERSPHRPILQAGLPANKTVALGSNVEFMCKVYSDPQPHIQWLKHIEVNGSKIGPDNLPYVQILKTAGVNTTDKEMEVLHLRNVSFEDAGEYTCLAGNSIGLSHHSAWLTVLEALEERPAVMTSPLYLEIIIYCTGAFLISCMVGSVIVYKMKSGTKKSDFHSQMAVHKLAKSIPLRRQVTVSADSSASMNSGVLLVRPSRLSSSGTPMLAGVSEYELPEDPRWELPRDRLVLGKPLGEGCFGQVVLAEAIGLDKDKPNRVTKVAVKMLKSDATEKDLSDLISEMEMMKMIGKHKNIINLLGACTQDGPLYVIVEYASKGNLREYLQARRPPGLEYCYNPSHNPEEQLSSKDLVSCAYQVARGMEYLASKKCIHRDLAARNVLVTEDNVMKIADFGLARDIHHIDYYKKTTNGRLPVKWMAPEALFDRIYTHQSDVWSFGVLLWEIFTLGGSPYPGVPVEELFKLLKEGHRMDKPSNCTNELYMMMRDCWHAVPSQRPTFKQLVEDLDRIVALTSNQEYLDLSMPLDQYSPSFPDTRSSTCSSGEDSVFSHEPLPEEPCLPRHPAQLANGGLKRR
T3 sequence (P54756 25-1037): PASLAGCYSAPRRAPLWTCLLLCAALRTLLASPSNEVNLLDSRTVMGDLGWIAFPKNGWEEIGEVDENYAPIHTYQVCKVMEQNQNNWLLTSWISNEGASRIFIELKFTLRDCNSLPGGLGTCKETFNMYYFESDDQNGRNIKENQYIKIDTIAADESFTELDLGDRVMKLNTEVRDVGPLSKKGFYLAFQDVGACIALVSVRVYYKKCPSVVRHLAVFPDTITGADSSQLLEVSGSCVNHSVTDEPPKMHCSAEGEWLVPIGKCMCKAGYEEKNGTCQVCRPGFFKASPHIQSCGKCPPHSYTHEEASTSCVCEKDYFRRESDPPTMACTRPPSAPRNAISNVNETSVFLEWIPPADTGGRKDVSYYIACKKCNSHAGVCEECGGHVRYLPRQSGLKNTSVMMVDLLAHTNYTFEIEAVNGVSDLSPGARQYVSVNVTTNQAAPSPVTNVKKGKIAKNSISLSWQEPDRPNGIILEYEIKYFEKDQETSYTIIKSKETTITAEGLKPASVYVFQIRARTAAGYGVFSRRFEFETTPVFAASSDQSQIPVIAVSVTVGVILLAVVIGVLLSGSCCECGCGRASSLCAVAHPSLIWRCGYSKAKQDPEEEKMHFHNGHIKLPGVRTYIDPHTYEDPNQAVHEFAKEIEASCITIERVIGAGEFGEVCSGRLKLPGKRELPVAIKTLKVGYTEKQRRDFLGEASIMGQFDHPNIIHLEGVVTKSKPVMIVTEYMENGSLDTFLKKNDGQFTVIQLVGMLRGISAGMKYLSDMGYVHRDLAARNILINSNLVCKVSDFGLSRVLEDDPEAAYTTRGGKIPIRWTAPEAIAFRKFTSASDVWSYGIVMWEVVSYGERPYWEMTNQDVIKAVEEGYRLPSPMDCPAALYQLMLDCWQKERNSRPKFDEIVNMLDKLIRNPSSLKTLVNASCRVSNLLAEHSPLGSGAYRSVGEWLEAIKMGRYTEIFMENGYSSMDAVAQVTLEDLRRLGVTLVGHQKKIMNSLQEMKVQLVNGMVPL
T1 sequence (P42684 whole entry): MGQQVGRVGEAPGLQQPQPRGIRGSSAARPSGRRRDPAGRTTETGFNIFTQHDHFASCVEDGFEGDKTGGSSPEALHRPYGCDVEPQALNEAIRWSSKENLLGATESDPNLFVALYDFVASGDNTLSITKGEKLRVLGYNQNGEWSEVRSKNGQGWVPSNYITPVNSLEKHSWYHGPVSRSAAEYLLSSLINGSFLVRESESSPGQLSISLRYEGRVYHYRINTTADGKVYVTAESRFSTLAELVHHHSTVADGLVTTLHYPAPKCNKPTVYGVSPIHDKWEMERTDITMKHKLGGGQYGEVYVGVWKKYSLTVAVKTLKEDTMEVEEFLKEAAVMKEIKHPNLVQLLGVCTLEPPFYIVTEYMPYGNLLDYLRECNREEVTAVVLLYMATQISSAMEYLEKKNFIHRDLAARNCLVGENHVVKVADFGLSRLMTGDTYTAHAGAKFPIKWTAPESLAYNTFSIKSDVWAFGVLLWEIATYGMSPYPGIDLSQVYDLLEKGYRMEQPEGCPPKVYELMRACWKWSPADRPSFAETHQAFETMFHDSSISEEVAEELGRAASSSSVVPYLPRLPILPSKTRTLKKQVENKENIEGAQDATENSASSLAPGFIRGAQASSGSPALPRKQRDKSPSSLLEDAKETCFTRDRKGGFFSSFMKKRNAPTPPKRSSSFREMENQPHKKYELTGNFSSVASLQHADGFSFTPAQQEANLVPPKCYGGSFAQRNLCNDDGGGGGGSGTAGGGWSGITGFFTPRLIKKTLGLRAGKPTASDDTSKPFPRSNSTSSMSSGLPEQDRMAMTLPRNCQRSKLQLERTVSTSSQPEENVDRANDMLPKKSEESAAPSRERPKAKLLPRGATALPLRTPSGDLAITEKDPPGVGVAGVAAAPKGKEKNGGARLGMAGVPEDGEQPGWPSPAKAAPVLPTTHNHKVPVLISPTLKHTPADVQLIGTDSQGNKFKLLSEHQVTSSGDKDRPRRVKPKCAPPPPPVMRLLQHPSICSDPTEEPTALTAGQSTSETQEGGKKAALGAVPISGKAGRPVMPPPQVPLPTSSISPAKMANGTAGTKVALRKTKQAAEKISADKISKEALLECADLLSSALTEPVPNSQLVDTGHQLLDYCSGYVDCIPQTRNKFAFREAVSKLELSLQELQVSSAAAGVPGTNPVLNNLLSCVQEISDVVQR

## C=CC(=O)Nc1cccc(Nc2nc(Nc3ccc(OCCOC)c(F)c3)ncc2F)c1 [Compound 2]
ABL2/ARG
  inhibition at 3 µM: 62.8%
ABL2/ARG; [1]
  remaining activity at 3 µM: 37.3%
ABL2/ARG; [2]
  remaining activity at 3 µM: 37.1%
DRAK1/STK17A
  inhibition at 3 µM: 18.2%
DRAK1/STK17A; [1]
  remaining activity at 3 µM: 82.9%
DRAK1/STK17A; [2]
  remaining activity at 3 µM: 80.6%
EPHA5
  inhibition at 3 µM: 8.66%
EPHA5; [1]
  remaining activity at 3 µM: 89.1%
EPHA5; [2]
  remaining activity at 3 µM: 93.6%
FGFR1
  inhibition at 3 µM: 59.7%
FGFR1; [1]
  remaining activity at 3 µM: 41.4%
FGFR1; [2]
  remaining activity at 3 µM: 39.3%
DDR2
  inhibition at 3 µM: -3.87%
DDR2; [1]
  remaining activity at 3 µM: 103%
DDR2; [2]
  remaining activity at 3 µM: 105%
SGK1
  inhibition at 3 µM: 0.37%
SGK1; [1]
  remaining activity at 3 µM: 99.7%
SGK1; [2]
  remaining activity at 3 µM: 99.5%
PBK/TOPK
  inhibition at 3 µM: 3.07%
PBK/TOPK; [1]
  remaining activity at 3 µM: 98.6%
PBK/TOPK; [2]
  remaining activity at 3 µM: 95.3%
